Legend:
L. monocytogenes = type: cell-based; conditions: hydrogen peroxide 200 mM, benzalkonium chloride 100 ppm; 10 min, room temperature
Procedure: Here, the role of L. monocytogenes EPS in providing tolerance to disinfection and desiccation was evaluated. […] To distinguish between the contribution of EPS versus EPS-independent c-di-GMP-responsive agents, included in the tests were the ΔpdeB/C/D ΔpssC mutant characterized by elevated intracellular c-di-GMP levels but defective in EPS production.
Cultures were grown in HTM with 3% glucose at 37° C. for 24 h, at which point small uniform clumps are formed by the ΔpdeB/C/D strain. Aliquots (250 μl; 10^8 cfu/ml) of these cultures were mixed with disinfectants at 1:1 vol ratios in small glass tubes that also contained 0.1 g of acid washed glass beads (Sigma Life Sciences). Following a 10-min exposure to disinfectants at room temperature, D/E neutralizing broth (500 μl; Difco) was added. Samples were vigorously vortexed (for 5 min) and clumps of the ΔpdeB/C/D strain were dispersed due to the action of the glass beads. Serial dilutions were plated on BHI agar and colonies were counted following a 48-h incubation at 37° C.

MBP-GGDEFpssE = assay: Equilibrium dialysis assay of c-di-GMP binding by the PssE receptor; parameters: species or system L. monocytogenes
Description: (§1) To test the prediction that the PssE protein acts as a c-di-GMP receptor, its GGDEF domain (“GGDEF” disclosed as SEQ ID NO: 3) containing the I-site as an MBP fusion (MBP-GGDEFpssE) (“GGDEF” disclosed as SEQ ID NO: 3) was overexpressed, and this protein was purified (FIG. 5A) and analyzed for its ability to bind c-di-GMP in vitro using equilibrium dialysis. […] This value falls within the range of physiologically relevant intracellular c-di-GMP concentrations measured in other bacteria that are believed to be in the submicromolar to low micromolar range. […] Therefore, PssE is a bonafide c-di-GMP receptor that is predicted to transfer the c-di-GMP signal to activate synthesis of the listerial Pss EPS.
For purification of MBP::PdeC and MBP::GGDEFpssE fusions (“GGDEF” disclosed as SEQ ID NO: 3), IPTG (final concentration, 0.2 mM) was added to exponentially (A600, 0.6-0.8) growing E. coli DH5α containing appropriate plasmids. After 2-h induction, cells were collected by centrifugation. […]
(§2) Equilibrium dialysis experiments were performed as previously described. […] The nucleotide concentrations were quantified by HPLC. Binding constants were calculated by the GraphPad Prism software, version 4.03 (GraphPad Software, San Diego, Calif.) using a nonlinear regression model.

[1] = target: T1, Listeria monocytogenes PssE (Lmo0531), GGDEF domain (residues 107-285) containing the I-site, as MBP fusion (MBP::GGDEFpssE) (Listeria monocytogenes, UniProt Q8Y9J6); assay: Equilibrium dialysis of c-di-GMP binding to the PssE receptor (MBP-GGDEFpssE)
T1 construct: equilibrium dialysis
T1 sequence (Q8Y9J6 entry or part of it): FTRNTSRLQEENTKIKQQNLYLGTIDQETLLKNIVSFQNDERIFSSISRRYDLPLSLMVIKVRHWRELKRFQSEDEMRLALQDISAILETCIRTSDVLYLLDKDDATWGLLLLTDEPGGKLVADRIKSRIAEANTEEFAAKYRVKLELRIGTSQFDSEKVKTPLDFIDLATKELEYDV
Description: FIGS. 5A-5B: In vitro assay of c-di-GMP binding by the PssE receptor. […] The GGDEF domain of PssE (residues 107-285) (“GGDEF” disclosed as SEQ ID NO: 3) containing the putative I-site was fused downstream of MBP, MBP::GGDEFpssE (“GGDEF” disclosed as SEQ ID NO: 3), and used in c-di-GMP binding assays. […] Shown is the dependence of the ratio of bound cdi-GMP per protein in the dialysis chamber, where protein alone was loaded, versus concentration of free c-di-GMP at equilibrium.
as §1
For purification of MBP::PdeC and MBP::GGDEFpssE fusions (“GGDEF” disclosed as SEQ ID NO: 3), IPTG (final concentration, 0.2 mM) was added to exponentially (A600, 0.6-0.8) growing E. coli DH5α containing appropriate plasmids. After 2-h induction, cells were collected by centrifugation. Cell pellets were resuspended in a buffer containing 200 mM NaCl, 0.5 mM EDTA, 5 mM MgCl2, 20 mM Tris-HCl (pH 7.6), and 5% glycerol that also contained protease inhibitors. […]
as §2

[2] = Solubility of listerial EPS preparations; type: physicochemical
Description: Considering that chitin, a polymer of β-1,4-linked N-acetylglucosamine, is also insoluble, but chitosan, which is obtained from chitin by N-deacetylation, is soluble in dilute acid, ManNAc-Gal EPS may also be made soluble by N-deacetylation. […] To identify the sugars belonging to the anomeric signals, a series of 2-D NMR spectra was acquired. COSY and TOCSY spectra were used to assign the proton chemical shifts, and an HSQC spectrum was obtained to assign the carbon chemical shifts of the monosaccharide residues present in EPS-N. The residues and their linkage positions were identified from the proton and carbon chemical shifts. A NOESY spectrum was used to determine the monosaccharide sequence. The spectra clearly identified one of the anomeric peaks as belonging to a terminal α-galactopyranose (α-Galp) residue (Table 3).
N-deacetylation was performed to obtain soluble EPS material for NMR studies. The insoluble EPS sample was suspended in 300 μl of 50% NaOH and heated to 80° C. for 1 h. After cooling to room temperature, the sample was diluted with 1 ml of water and acidified with glacial acetic acid (final pH˜4-5). The sample was dialyzed against running deionized water for 36 h using a 3,500 Da regenerated cellulose membrane and lyophilized. This material was designated ‘EPS-N’. EPS-N was dissolved in 5 ml of 0.4 M HCl and heated at 110° C. for 2 h for partial hydrolysis. […]

ΔpdeB/C/D strain = assay: Cell aggregation assay with added recombinant protein (prevention of aggregation of the growing strain); type: cell-based, L. monocytogenes; conditions: added to inoculum, HTM/G, 30° C., 24 h
[3] = Release of soluble carbohydrates from purified insoluble EPS (anthrone assay); type: biochemical, L. monocytogenes; conditions: 32 μg ml^−1 final concentration; ethanol precipitated EPS
Procedure: Next, purified insoluble ManNAc-Gal EPS was treated with PssZ and PssZ E72Q.
Total carbohydrates were determined using an anthrone assay. Dried EPS samples were transferred to 0.4 ml of water and mixed with an ethyl acetate solution containing anthrone reagent (2% w/v). Then, 1 ml of concentrated sulfuric acid was added to the mixture for color development. Samples were read at a wavelength of 620 nm, and glucose was used as a standard to estimate carbohydrate levels in the samples. Finally, dried EPS samples were sent to the Complex Carbohydrate Research Center (Athens, Ga., USA) for determination of monosaccharide composition, linkage, and NMR analysis.
The EPS hydrolytic activities of PssZ and PssZ E72Q were assessed by the ability of these proteins: (i) to prevent aggregation of the growing ΔpdeB/C/D strain in HTM/G medium, (ii) to disperse nongrowing ΔpdeB/C/D aggregates; and (iii) to release soluble carbohydrates from the purified insoluble EPS fibers. (i) Different concentrations (0.13 and 1.3 μg ml^−1) of the purified PssZ and PssZ E72Q proteins were added at the beginning of strain incubation. (ii) Aggregates were washed twice and resuspended in HTM salts-MOPS medium. Proteins were added to 1 ml of aggregate suspension (32 μg ml^−1, final concentration), and samples were incubated at 30° C. with gentle shaking. […]

[4] = system: washed aggregates of strain ΔpdeB/C/D; assay: Dispersal of preformed cell aggregates; type: cell-based, L. monocytogenes
[5] = Stability of PssZ hydrolytic activity on incubation; type: physicochemical; conditions: 3 day incubation at 30° C.
Description: In addition to biosynthesis proteins, the ManNAc-Gal EPS-specific glycosylhydrolase was identified and characterized. PssZ belongs to the GH8 family, whose members cleave β1-4 linkages through an inverting mechanism wherein carboxylate containing amino acid residues (i.e., Glu and Asp) perform the hydrolysis of glycosidic bonds. A conserved Glu residue present in the presumed catalytic site of PssZ was identified to be important for hydrolytic activity of PssZ (FIG. 17). The PssZ E72Q mutation largely, but not completely, abolished hydrolytic activity. […] A similar observation was reported for BcsZ, i.e., no hydrolytic activity was detected on carboxymethylcellulose in solution, whereas activity was shown on an agar plate containing carboxymethylcellulose. […] Given its relative stability, PssZ can be used for dispersing listerial EPS aggregates in food storage or processing plants, which would make listeria more susceptible to disinfectants. According to the results observed, listerial EPS-embedded aggregates are several orders of magnitude more tolerant to commonly used disinfectants than planktonic cells.

Which “tolerance of ΔpdeB/C/D mutant compared to wild type or ΔpdeB/C/D ΔpssC mutant” value (L. monocytogenes) does the source give for OO [hydrogen peroxide] here?
The value was “approximately 10^2 fold”.

For benzalkonium chloride, which “tolerance of ΔpdeB/C/D mutant compared to wild type or ΔpdeB/C/D ΔpssC mutant” value (L. monocytogenes) is on record?
Its value is “approximately 10^2 fold”.

With Nc1nc2c(ncn2[C@@H]2O[C@@H]3COP(=O)(O)O[C@H]4[C@@H](O)[C@H](n5cnc6c(=O)[nH]c(N)nc65)O[C@@H]4COP(=O)(O)O[C@H]3[C@H]2O)c(=O)[nH]1 [c-di-GMP, Cyclic dimeric GMP] as the molecule, how does the Kd (MBP-GGDEFpssE; 25 h, room temperature, protein 20 μM, c-di-GMP 1 to 50 μM, read-out: apparent Kd) read?
The Kd was 790 ± 170 nM.

And the “binding capacity, Bmax” value (MBP-GGDEFpssE; nonlinear regression)?
The value was 2.03±0.12 μM c-di-GMP (μM protein)^−1.

And the Kd [1]?
Its Kd is 790 ± 170 nM.

What about the “Bmax (binding capacity)” value ([1]; equilibrium dialysis, 25 h at room temperature) of the same molecule?
Its value is 2.03±0.12 μM c-di-GMP (μM protein)^−1.

What about the “c-di-GMP molecules bound per PssE molecule at saturation” value ([1]; from Bmax) of the same molecule?
Its value is “two”.

For “{4)-β-ManpNAc-(1-4)-[α-Galp-(1-6)]-β-ManpNAc-(1-} [ManNAc-Gal EPS]”, which “solubility of native material” value [2] is on record?
The value was “completely insoluble”.

B1: PssZ: L. monocytogenes ManNAc-Gal EPS-specific glycosylhydrolase; SEQ ID NO: 1, purified fragment SEQ ID NO: 2 (protein)
chain: RPESKKTVSAPKETTPTSTSVQTYVKENYTAKNGLIMDYKNTEEPHYLAESIGLYMEYLVEVNDSKTFQKQVNHLEKYFIAEDNFIKWEATDSTTTNAIVDDFRITEALYQASEKFSFPSYKKMADKFLTNTKKYSAEQGVPVDFYDFVHKKKADTLHLSYLNIQAMQQINYRDKAYLPIQTINADPFFTEVFQNGQFKFADQKEVNMIDQMLIAIAYYDENGDIEPNFDNFLQTELASKGKIYARYQRETKKPSSENESTAVYAFLTQYFNKTNQAKNGKITKELLEKMDTSNPETTHFFDYINKEITLKK
modifications: His6 tag; Listeria monocytogenes
What does the source list for B1?
inhibition of cell aggregation (ΔpdeB/C/D strain; 0.13 μg ml^−1 final concentration): inhibited aggregation partially; inhibition of cell aggregation (ΔpdeB/C/D strain; 1.3 μg ml^−1 final concentration): inhibited it completely; hydrolytic activity on purified insoluble EPS (anthrone assay) [3]: did not detect any PssZ activity; dispersal of preformed cell aggregates ([4]; 32 μg ml^−1 final concentration, 6 h, 30° C., HTM salts without carbon source): dispersed cell aggregates almost completely; presence of reducing sugars in supernatants after treatment of cell aggregates ([4]; supernatants after treatment of cell aggregates): able to be detected; hydrolytic activity retained after incubation [5]: retains partial hydrolytic activity
